Laboratory results published in PubChem BioAssay (NCI).
Several values for one entry are separate records, joined by “and”; a condition that tells them apart may be missing. Identical values can stand only once.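 Values below derive from 48-hour exposures of cells grown in 96-well plates, with endpoints linearly interpolated between the two concentrations bracketing the appropriate inhibition level. GI50 marks 50% less growth. TGI: total growth inhibition.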

Each compound was assayed on MDA-MB-468 breast (assay: DTP human tumour cell line panel, 48 h).

Going from `O=C(NOCC1CC1)c1ccc(F)c(F)c1Nc1ccc(I)cc1Cl` to `O=C(Nc1ccc(Cl)cc1)c1cc2ccccc2cc1O`, the GI50 falls from 2.67 µM to 1.61 µM (1.7-fold).

Compared with `CC(NNC(=S)N1CCCCCC1)c1ccc2ccccc2n1` (stereo unspecified), `O=C(NC(=S)Nc1ccc(Cl)cc1)c1ccccc1` is 4.2-fold higher in GI50: 0.603 µM for the first, 2.56 µM for the second.

First: C#C[C@]1(O)CC[C@H]2[C@@H]3CC=C4c5sc(Nc6cc(Cl)ccc6OC)nc5CC[C@]4(C)[C@H]3CC[C@@]21C
Second: C[C@]12CC[C@@H]3c4ccc(O)cc4CC[C@H]3[C@@H]1CC[C@@H]2NS(=O)(=O)Cc1ccc(Cl)cc1
The GI50 of the first is 2.1-fold lower: 1.69 µM for the first, 3.63 µM for the second.

`CN(C)Cc1ccc(C(=O)Nc2ccc3ncnc(Nc4ccc(Oc5cccc(F)c5)c(Cl)c4)c3c2)cc1` and `Cc1nc2cccc(NCc3ccc(C(=O)NO)cc3)c2c(=O)n1-c1ccccc1` are within 1.5-fold of each other in GI50: 1.29 µM for the first, 1.48 µM for the second.

Going from `O=C(Nc1cccc(-c2nc(-c3ccc(NC(=O)c4cccs4)cc3Cl)no2)c1)Nc1ccc(NC(=O)C2CC2)c(C(F)(F)F)c1` to `O=C(Nc1ncc(Cc2ccccc2Cl)s1)c1ccc2c(c1)OCCO2`, the GI50 rises from 0.181 µM to 0.462 µM (2.6-fold).

First: O=C(Oc1ccc(CCl)cc1)c1ccccc1
Second: COC(=O)/C(=C\c1c(C)[nH]c2ccccc12)S(=O)(=O)c1ccccc1
The GI50 of the first is 44-fold lower: 0.142 µM for the first, 6.25 µM for the second.

Compared with `COc1ccc(-c2nc(-c3ccccc3)c(-c3ccccc3)n2C2CC2)cc1OC1CCCC1`, `COc1ccc(-c2nc(-c3cn(C)c4ncccc34)cs2)cc1` is 17-fold lower in GI50: 66.8 µM for the first, 3.83 µM for the second.

`Cc1ccc2c(=O)c3cccc(CC(=O)O)c3oc2c1C` and `Cc1[nH]c(/C=C2\C(=O)Nc3ccc(F)cc32)c(C)c1C(=O)NC[C@H](O)CN1CCOCC1` cannot be ordered by GI50: > 100 µM for the first, > 10 µM for the second.

Compared with `CC1(C)N=C(N)N=C(N)N1c1cc(Cl)ccc1Cl`, `CCN(CC)CCCCCCCNc1c2ccc(Cl)cc2nc2ccc(OC)cc12` is 21-fold lower in GI50: 28.6 µM for the first, 1.34 µM for the second.

Going from `C=C1C(=O)O[C@H]2[C@H]1CC/C(Cn1cc(-c3ccccc3)nn1)=C\CC[C@@]1(C)O[C@@H]21` to `Cc1ccc2c(N)c(C(=O)N[C@H]3CCc4cc(N5CC6CCC(C5)N6)ccc4C3)sc2n1`, the GI50 falls from 0.953 µM to 0.579 µM (1.6-fold).

Compared with `S=C(Nc1ccc(Cl)cc1)Nc1ccc(Cl)cc1` (tested in a mixture with another compound), `COc1cc(/C=C/C(=O)c2ccc(Cl)cc2)ccc1OS(=O)(=O)c1ccc(C)cc1` is 5-fold higher in GI50: 1.7 µM for the first, 8.43 µM for the second.

Going from `S=C(N/N=C/c1ccccn1)Nc1ccccn1` to `O=C1C=Cc2ccccc2/C1=C/c1[nH]c(=O)[nH]c1O`, the GI50 rises from 1.28 µM to 2.66 µM (2.1-fold).

First: CCOC(=O)Oc1c(OC)cc(C(=O)O[C@@H]2C[C@@H]3CN4CCc5c([nH]c6cc(OC)ccc56)[C@H]4C[C@@H]3[C@H](C(=O)OC)[C@H]2OC)cc1OC
Second: COc1ccc(/C=C\c2cc(OC)c(OC)c(OC)c2)cc1OCC(=O)Nc1nc2ccc(C(F)(F)F)cc2s1
The GI50 of the first is 3.8-fold higher: 8.13 µM for the first, 2.16 µM for the second.

Compared with `Nc1nc(-c2cccc([N+](=O)[O-])c2)c(N=Nc2ccc(Br)cc2)s1`, `CCC1=Cc2c(OC)cccc2OC12C=Cc1c(OC)cccc1O2` (stereo unspecified) is 12-fold lower in GI50: 11.1 µM for the first, 0.951 µM for the second.

First: Cc1cc2c(F)c(Oc3ncnn4cc(OC[C@@H](C)OC(=O)[C@H](C)N)c(C)c34)ccc2[nH]1
Second: O=C1CCC2(C=C(Br)C(=O)C(Br)=C2)O1
The GI50 of the first is 5.6-fold higher: 9.23 µM for the first, 1.64 µM for the second.

`N=C(N)CCCCCCCCC(=N)N` gave a GI50 of 10.1 µM.

`O=C(NOCC1CC1)c1ccc(F)c(F)c1Nc1ccc(I)cc1Cl` and `O=C(Nc1ccc(Cl)cc1)c1cc2ccccc2cc1O` are within 1.5-fold of each other in TGI: 8.21 µM for the first, 7.03 µM for the second.

Going from `CC(NNC(=S)N1CCCCCC1)c1ccc2ccccc2n1` (stereo unspecified) to `O=C(NC(=S)Nc1ccc(Cl)cc1)c1ccccc1`, the TGI rises from 28.1 µM to > 85.3 µM.

First: C#C[C@]1(O)CC[C@H]2[C@@H]3CC=C4c5sc(Nc6cc(Cl)ccc6OC)nc5CC[C@]4(C)[C@H]3CC[C@@]21C
Second: C[C@]12CC[C@@H]3c4ccc(O)cc4CC[C@H]3[C@@H]1CC[C@@H]2NS(=O)(=O)Cc1ccc(Cl)cc1
The TGI of the first is 3.6-fold lower: 4.65 µM for the first, 16.7 µM for the second.

`CN(C)Cc1ccc(C(=O)Nc2ccc3ncnc(Nc4ccc(Oc5cccc(F)c5)c(Cl)c4)c3c2)cc1` and `Cc1nc2cccc(NCc3ccc(C(=O)NO)cc3)c2c(=O)n1-c1ccccc1` are within 1.5-fold of each other in TGI: 2.79 µM for the first, 3.1 µM for the second.

Going from `O=C(Nc1cccc(-c2nc(-c3ccc(NC(=O)c4cccs4)cc3Cl)no2)c1)Nc1ccc(NC(=O)C2CC2)c(C(F)(F)F)c1` to `O=C(Nc1ncc(Cc2ccccc2Cl)s1)c1ccc2c(c1)OCCO2`, the TGI rises from 0.394 µM to > 30.6 µM.

Going from `O=C(Oc1ccc(CCl)cc1)c1ccccc1` to `COC(=O)/C(=C\c1c(C)[nH]c2ccccc12)S(=O)(=O)c1ccccc1`, the TGI rises from 0.325 µM to > 100 µM.

`COc1ccc(-c2nc(-c3ccccc3)c(-c3ccccc3)n2C2CC2)cc1OC1CCCC1` and `COc1ccc(-c2nc(-c3cn(C)c4ncccc34)cs2)cc1` cannot be ordered by TGI: > 165 µM for the first, > 100 µM for the second.

`Cc1ccc2c(=O)c3cccc(CC(=O)O)c3oc2c1C` and `Cc1[nH]c(/C=C2\C(=O)Nc3ccc(F)cc32)c(C)c1C(=O)NC[C@H](O)CN1CCOCC1` cannot be ordered by TGI: > 100 µM for the first, > 10 µM for the second.

Going from `CC1(C)N=C(N)N=C(N)N1c1cc(Cl)ccc1Cl` to `CCN(CC)CCCCCCCNc1c2ccc(Cl)cc2nc2ccc(OC)cc12`, the TGI falls from > 100 µM to 2.86 µM.

`C=C1C(=O)O[C@H]2[C@H]1CC/C(Cn1cc(-c3ccccc3)nn1)=C\CC[C@@]1(C)O[C@@H]21` and `Cc1ccc2c(N)c(C(=O)N[C@H]3CCc4cc(N5CC6CCC(C5)N6)ccc4C3)sc2n1` are within 1.5-fold of each other in TGI: 1.97 µM for the first, 2.07 µM for the second.

Going from `S=C(Nc1ccc(Cl)cc1)Nc1ccc(Cl)cc1` (tested in a mixture with another compound) to `COc1cc(/C=C/C(=O)c2ccc(Cl)cc2)ccc1OS(=O)(=O)c1ccc(C)cc1`, the TGI rises from 5.11 µM to 32.1 µM (6.3-fold).

`S=C(N/N=C/c1ccccn1)Nc1ccccn1` and `O=C1C=Cc2ccccc2/C1=C/c1[nH]c(=O)[nH]c1O` are within 1.5-fold of each other in TGI: 5.76 µM for the first, 7.63 µM for the second.

Compared with `CCOC(=O)Oc1c(OC)cc(C(=O)O[C@@H]2C[C@@H]3CN4CCc5c([nH]c6cc(OC)ccc56)[C@H]4C[C@@H]3[C@H](C(=O)OC)[C@H]2OC)cc1OC`, `COc1ccc(-c2cn[nH]c2-c2cc(OC)c(OC)c(OC)c2)cc1N` is higher in TGI: 23.3 µM for the first, > 100 µM for the second.

Compared with `Nc1nc(-c2cccc([N+](=O)[O-])c2)c(N=Nc2ccc(Br)cc2)s1`, `CCC1=Cc2c(OC)cccc2OC12C=Cc1c(OC)cccc1O2` (stereo unspecified) is higher in TGI: 34.2 µM for the first, > 100 µM for the second.

First: Cc1cc2c(F)c(Oc3ncnn4cc(OC[C@@H](C)OC(=O)[C@H](C)N)c(C)c34)ccc2[nH]1
Second: COc1ccc(/C=C\c2cc(OC)c(OC)c(OC)c2)cc1OCC(=O)Nc1nc2ccc(C(F)(F)F)cc2s1
The TGI of the first is 3.5-fold higher: 21.8 µM for the first, 6.25 µM for the second.

Going from `O=C1CCC2(C=C(Br)C(=O)C(Br)=C2)O1` to `N=C(N)CCCCCCCCC(=N)N`, the TGI rises from 4.29 µM to > 100 µM.

In the case of `CNC(=O)c1cccc(-c2ccc3c(N4CCOC[C@@H]4C)nc(N4CCOC[C@@H]4C)nc3n2)c1`, the GI50 is reported as 0.0436 µM and 0.116 µM and 0.0681 µM.
`COc1ccc(-c2cn[nH]c2-c2cc(OC)c(OC)c(OC)c2)cc1N` was tested, and the GI50 was < 0.01 µM and 0.0314 µM.

For `CNC(=O)c1cccc(-c2ccc3c(N4CCOC[C@@H]4C)nc(N4CCOC[C@@H]4C)nc3n2)c1`, the TGI was 0.473 µM and 0.558 µM and 0.499 µM.
